Patent US20080171732A1, “New Pyridine Analogues IX 519” (AstraZeneca AB, priority 2007, published 2008)

These molecules were tested against T1, P2Y12 receptor (Homo sapiens, UniProt Q9H244) (assay: Functional inhibition of 2-Me-S-ADP induced P2Y12 signalling (35S-GTPγS, cell membranes from P2Y12 transfected CHO-cells)). Conditions: EC80 concentration of agonist 2-methyl-thio-adenosine diphosphate, 30° C., 45 min.
T1 construct: expressed in transfected cells; host or cells: CHO cells (membranes)
T1 sequence (Q9H244 whole entry): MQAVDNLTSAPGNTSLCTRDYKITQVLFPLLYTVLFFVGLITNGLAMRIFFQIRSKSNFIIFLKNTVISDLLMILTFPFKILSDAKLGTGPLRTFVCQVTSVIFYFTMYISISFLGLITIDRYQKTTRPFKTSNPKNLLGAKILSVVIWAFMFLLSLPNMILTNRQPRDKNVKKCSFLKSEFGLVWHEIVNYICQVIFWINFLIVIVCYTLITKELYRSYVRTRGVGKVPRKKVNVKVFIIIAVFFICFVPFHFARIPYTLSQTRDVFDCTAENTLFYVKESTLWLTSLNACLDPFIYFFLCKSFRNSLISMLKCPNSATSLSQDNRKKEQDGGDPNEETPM
Type: biochemical
Protocol: Functional inhibition of-the P2Y12 receptor can be measured by in vitro assays using cell membranes from P2Y12 transfected CHO-cells, the methodology is indicated below.
(§1) Functional inhibition of 2-Me-S-ADP induced P2Y12 signalling: 5 μg of membranes were diluted in 200 μl of 200 mM NaCl, 1 mM MgCl2, 50 mM HEPES (pH 7.4), 0.01% BSA, 30μg/ml saponin and 10 μM GDP. To this was added an EC80 concentration of agonist (2-methyl-thio-adenosine diphosphate), the required concentration of test compound and 0.1 μCi ^35S-GTPγS. The reaction was allowed to proceed at 30° C. for 45 min. Samples were then transferred on to GF/B filters using a cell harvester and washed with wash buffer (50 mM Tris (pH 7.4), 5 mM MgCl2, 50 mM NaCl). Filters were then covered with scintilant and counted for the amount of ^35S-GTPγS retained by the filter. Maximum activity was that determined in the presence of the agonist and minimum activity in the absence of the agonist following subtraction of the value determined for non-specific activity. The effect of compounds at various concentrations was plotted according to the equation
y=A+((B−A)/(1+((C/x)̂D)))
and IC50 estimated where • A is the bottom plateau of the curve i.e. the final minimum y value • B is the top of the plateau of the curve i.e. the final maximum y value • C is the x value at the middle of the curve. This represents the log EC50 value when A+B=100 • D is the slope factor. • x is the original known x values. • Y is the original known y values.
as §1, with “30 μg/ml” for “30μg/ml”, “0. 1” for “0.1”
Molecule `CCOC(=O)c1cc(C#N)c(N2CC(C(=O)NS(=O)(=O)Cc3ccc(F)cc3F)C2)nc1OCC` [Example 41, Ethyl5-cyano-6-(3-{[(2,4-difluorobenzyl)sulfonyl]carbamoyl}azetidin-1-yl)-2-ethoxynicotinate] has an IC50 of 0.087 µM.
With `CCOC(=O)c1cc(C#N)c(N2CCC(C(=O)NS(=O)(=O)Cc3cccc(F)c3)CC2)nc1OC` [Example 10, Ethyl5-cyano-6-(4-{[(3-fluorobenzyl)sulfonyl]carbamoyl}piperidin-1-yl)-2-methoxynicotinate] the IC50 was 0.016 µM.
`CCOC(=O)c1cc(C#N)c(N2CCC(C(=O)NS(=O)(=O)Cc3ccc(F)c(F)c3)CC2)nc1OC` [Example 14, Ethyl5-cyano-6-(4-{[(3,4-difluorobenzyl)sulfonyl]carbamoyl}piperidin-1-yl)-2-methoxynicotinate] was tested, and the IC50 was 0.013 µM.
`CCOC(=O)c1cc(C#N)c(N2CCC(C(=O)NS(=O)(=O)Cc3ccccc3)CC2)nc1SCC` [Example 4, Ethyl6-{4-[(benzylsulfonyl)carbamoyl]piperidin-1-yl}-5-cyano-2-(ethylthio)nicotinate] showed an IC50 of 0.006 µM.
`CCOC(=O)c1cc(Cl)c(N2CCC(C(=O)NS(=O)(=O)Cc3ccc(Cl)cc3)CC2)nc1SC` [Example 43, Ethyl5-chloro-6-(4-{[(4-chlorobenzyl)sulfonyl]carbamoyl}piperidin-1-yl)-2-(methylthio)nicotinate] gave an IC50 of 0.132 µM.
For `COc1nc(N2CCC(C(=O)NS(=O)(=O)Cc3ccccc3)CC2)c(C#N)cc1C(=O)OC(C)C` [Example 60, Isopropyl6-{4-[(benzylsulfonyl)carbamoyl]piperidin-1-yl}-5-cyano-2-methoxynicotinate], the IC50 was 0.027 µM.
Work on `CCOC(=O)c1cc(C#N)c(N2CC(C(=O)NS(=O)(=O)Cc3ccccc3)C2)nc1SC` [Example 57, Ethyl6-{3-[(benzylsulfonyl)carbamoyl]azetidin-1-yl}-5-cyano-2-(methylthio)nicotinate] yielded an IC50 of 0.018 µM.
`CCOC(=O)c1cc(C#N)c(N2CC(C(=O)NS(=O)(=O)Cc3ccccc3)C2)nc1COCc1ccc(OC)c(OC)c1` [Example 42, Ethyl6-{3-[(benzylsulfonyl)carbamoyl]azetidin-1-yl}-5-cyano-2-{[(3,4-dimethoxybenzyl)oxy]methyl}nicotinate] was tested, and the IC50 was 0.135 µM.
`CCOC(=O)c1cc(C#N)c(N2CCC(C(=O)NS(=O)(=O)Cc3ccccc3F)CC2)nc1OC` [Example 8, Ethyl5-cyano-6-(4-{[(2-fluorobenzyl)sulfonyl]carbamoyl}piperidin-1-yl)-2-methoxynicotinate] showed an IC50 of 0.01 µM.
`CCOC(=O)c1cc(C#N)c(N2CC(C(=O)NS(=O)(=O)Cc3cccc(F)c3F)C2)nc1OC` [Example 32, Ethyl5-cyano-6-(3-{[(2,3-difluorobenzyl)sulfonyl]carbamoyl}azetidin-1-yl)-2-methoxynicotinate] showed an IC50 of 0.083 µM.
`CCCC(=O)c1cc(C#N)c(N2CCC(C(=O)NS(=O)(=O)Cc3ccccc3)CC2)nc1OC` [Example 53, N-(Benzylsulfonyl)-1-(5-butyryl-3-cyano-6-methoxypyridin-2-yl)piperidine-4-carboxamide] showed an IC50 of 0.076 µM.
Work on `COc1nc(N2CCC(C(=O)NS(=O)(=O)Cc3ccc(F)cc3)CC2)c(C#N)cc1C(=O)OC(C)C` [Example 56, Isopropyl5-cyano-6-(4-{[(4-fluorobenzyl)sulfonyl]carbamoyl}piperidin-1-yl)-2-methoxynicotinate] yielded an IC50 of 0.025 µM.
Molecule `CCOC(=O)c1cc(C#N)c(N2CCC(C(=O)NS(=O)(=O)Cc3ccccc3)CC2)nc1Cn1cncn1` [Example 47, Ethyl6-{4-[(benzylsulfonyl)carbamoyl]piperidin-1-yl}-5-cyano-2-(1H-1,2,4-triazol-1-ylmethyl)nicotinate] has an IC50 of 0.077 µM.
With `CCOC(=O)c1cc(C#N)c(N2CCC(C(=O)NS(=O)(=O)Cc3ccccc3)CC2)nc1CO` [Example 6, Ethyl6-{4-[(benzylsulfonyl)carbamoyl]piperidin-1-yl}-5-cyano-2-(hydroxymethyl)nicotinate] the IC50 was 0.017 µM.
`CCOC(=O)c1cc(C#N)c(N2CCC(C(=O)NS(=O)(=O)Cc3ccccc3)CC2)nc1COCc1ccccc1` [Example 36, Ethyl2-[(benzyloxy)methyl]-6-{4-[(benzylsulfonyl)carbamoyl]piperidin-1-yl}-5-cyanonicotinate] gave an IC50 of 0.055 µM.
For `CCOC(=O)c1cc(C#N)c(N2CC(C(=O)NS(=O)(=O)Cc3ccccc3)C2)nc1OCC` [Example 38, Ethyl6-{3-[(benzylsulfonyl)carbamoyl]azetidin-1-yl}-5-cyano-2-ethoxynicotinate], the IC50 was 0.047 µM.
For `CCOC(=O)c1cc(C#N)c(N2CC(C(=O)NS(=O)(=O)Cc3ccccc3F)C2)nc1OCC` [Example 40, Ethyl5-cyano-2-ethoxy-6-(3-{[(2-fluorobenzyl)sulfonyl]carbamoyl}azetidin-1-yl)nicotinate], the IC50 was 0.031 µM.
`CCOC(=O)c1cc(C#N)c(N2CCC(C(=O)NS(=O)(=O)Cc3ccccc3)CC2)nc1Cn1ccnn1` [Example 48] gave an IC50 of 0.032 µM.
`CCOC(=O)c1cc(C#N)c(N2CCC(C(=O)NS(=O)(=O)Cc3ccccc3)CC2)nc1Cn1ccnc1` [Example 49, Ethyl6-{4-[(benzylsulfonyl)carbamoyl]piperidin-1-yl}-5-cyano-2-(1H-imidazol-1-ylmethyl)nicotinate] was tested, and the IC50 was 0.073 µM.
`CCOC(=O)c1cc(C#N)c(N2CCC(C(=O)NS(=O)(=O)Cc3ccccc3)CC2)nc1C#N` [Example 5, Ethyl6-{4-[(benzylsulfonyl)carbamoyl]piperidin-1-yl}-2,5-dicyanonicotinate] gave an IC50 of 0.009 µM.
Work on `CCOC(=O)c1cc(C#N)c(N2CCC(C(=O)NS(=O)(=O)Cc3ccc(F)cc3Cl)CC2)nc1OC` [Example 17, Ethyl6-(4-{[(2-chloro-4-fluorobenzyl)sulfonyl]carbamoyl}piperidin-1-yl)-5-cyano-2-methoxynicotinate] yielded an IC50 of 0.024 µM.
Molecule `CCOC(=O)c1cc(C#N)c(N2CCC(C(=O)NS(=O)(=O)Cc3ccccc3)CC2)nc1OC` [Example 1, Ethyl6-{4-[(benzylsulfonyl)carbamoyl]piperidin-1-yl}-5-cyano-2-methoxynicotinate] has an IC50 of 0.012 µM.
`CCOC(=O)c1cc(C#N)c(N2CC(C(=O)NS(=O)(=O)Cc3ccc(F)cc3Cl)C2)nc1OC` [Example 30, Ethyl6-(3-{[(2-chloro-4-fluorobenzyl)sulfonyl]carbamoyl}azetidin-1-yl)-5-cyano-2-methoxynicotinate] was tested, and the IC50 was 0.009 µM.
For `CCOC(=O)c1cc(C#N)c(N2CCC(C(=O)NS(=O)(=O)Cc3ccc(Cl)cc3)CC2)nc1OC` [Example 12, Ethyl6-(4-{[(4-chlorobenzyl)sulfonyl]carbamoyl}piperidin-1-yl)-5-cyano-2-methoxynicotinate], the IC50 was 0.009 µM.
`CCOC(=O)c1cc(F)c(N2CCC(C(=O)NS(=O)(=O)Cc3ccccc3)CC2)nc1Cl` [Example 46, Ethyl6-{4-[(benzylsulfonyl)carbamoyl]piperidin-1-yl}-2-chloro-5-fluoronicotinate] showed an IC50 of 0.048 µM.
Work on `CCOC(=O)c1cc(C#N)c(N2CC(C(=O)NS(=O)(=O)Cc3ccc(Cl)cc3)C2)nc1OC` [Example 25, Ethyl6-(3-{[(4-chlorobenzyl)sulfonyl]carbamoyl}azetidin-1-yl)-5-cyano-2-methoxynicotinate] yielded an IC50 of 0.006 µM.
In the case of `CCOC(=O)c1cc(C#N)c(N2CC(C(=O)NS(=O)(=O)Cc3ccc(F)cc3)C2)nc1OC` [Example 24, Ethyl5-cyano-6-(3-{[(4-fluorobenzyl)sulfonyl]carbamoyl}azetidin-1-yl)-2-methoxynicotinate], the IC50 is reported as 0.009 µM.
Work on `CCOC(=O)c1cc(Cl)c(N2CCC(C(=O)NS(=O)(=O)Cc3ccccc3)CC2)nc1SC` [Example 54, Ethyl6-{4-[(benzylsulfonyl)carbamoyl]piperidin-1-yl}-5-chloro-2-(methylthio)nicotinate] yielded an IC50 of 0.039 µM.
`CCOC(=O)c1cc(C#N)c(N2CC(C(=O)NS(=O)(=O)Cc3ccccc3)C2)nc1OC` [Example 2, Ethyl6-{3-[(benzylsulfonyl)carbamoyl]azetidin-1-yl}-5-cyano-2-methoxynicotinate] gave an IC50 of 0.018 µM.
Work on `CCOC(=O)c1cc(C#N)c(N2CC(C(=O)NS(=O)(=O)c3ccccc3)C2)nc1OC` [Example 20, Ethyl5-cyano-2-methoxy-6-{3-[(phenylsulfonyl)carbamoyl]azetidin-1-yl}nicotinate] yielded an IC50 of 0.102 µM.
In the case of `CCOCc1nc(N2CC(C(=O)NS(=O)(=O)Cc3ccccc3)C2)c(C#N)cc1C(=O)OCC` [Example 33, Ethyl6-{3-[(benzylsulfonyl)carbamoyl]azetidin-1-yl}-5-cyano-2-(ethoxymethyl)nicotinate], the IC50 is reported as 0.069 µM.
